In brackets after ≈: the same amount, converted by molar mass.
What was measured:
cytochrome P450 2C9 = cytochrome P450 2C9 (Homo sapiens, UniProt P11712); experiment: Determining the cyp2C9 activity (O-demethylation of [O-methyl-14C]-naproxen); type: in vitro ADME; settings: human recombinant cytochrome P450 2C9; 37° C.; <0.4 μM when inhibition >50% at lowest concentration; read-out: CYP 2C9 IC50
How it was run: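 Recombinant CYP2C9 (40 pmol/ml) with 80 μM [O-methyl-14C]-naproxen in 0.1 M Tris, 5 mM MgCl2; test compound at 50, 10, 2 and 0.4 μM in duplicate. Started with 1 mM NADPH, stopped after 15 min with TCA; 14C-formaldehyde separated by solid-phase extraction and counted by scintillation. IC50 from least-squares fit.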

[1] = Determining the solubility (saturated solution in McIlvaine buffer pH 7.4, UV spectroscopy); type: physicochemical; settings: pH 7.4, aqueous buffer, thermodynamic from solid, shaken 2 hours, 0.75 mg solid in 0.75 ml
How it was run: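 Excess solid (0.75 mg per 0.75 ml) shaken 2 h in McIlvaine buffer pH 7.4, then filtered through 0.45 μm PTFE membrane with first drops discarded. Dissolved amount measured by UV spectroscopy.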

p38 MAP-kinase = p38 MAP-kinase (Homo sapiens, UniProt Q16539); experiment: p38 MAP-kinase enzymatic assay (phosphorylation of GST-tagged ATF2, chemoluminescence); type: biochemical; settings: inhibitor concentration 1 μM; activated p38 MAP-kinase 1 nM; ATP 100 μM; read-out: p38 (% Inh @ 1 μM)
Sequence of p38 MAP-kinase (Q16539 whole entry): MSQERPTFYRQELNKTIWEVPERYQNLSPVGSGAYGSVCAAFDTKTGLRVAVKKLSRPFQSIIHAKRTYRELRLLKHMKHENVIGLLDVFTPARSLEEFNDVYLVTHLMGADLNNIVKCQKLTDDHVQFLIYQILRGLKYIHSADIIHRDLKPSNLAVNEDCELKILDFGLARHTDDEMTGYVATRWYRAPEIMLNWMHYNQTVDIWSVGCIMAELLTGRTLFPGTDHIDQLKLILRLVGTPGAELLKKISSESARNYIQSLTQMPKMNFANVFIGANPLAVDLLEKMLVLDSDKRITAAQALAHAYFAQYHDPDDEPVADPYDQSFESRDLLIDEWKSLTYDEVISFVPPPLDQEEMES
How it was run: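 Activated p38 MAP-kinase (1 nM) preincubated 4 h at ambient temperature with 1 μM compound in HEPES pH 7, MgCl2, DTT, TWEEN20, then reacted 1 h with 10 nM GST-ATF2 and 100 μM ATP. Phospho-ATF2 detected by AlphaScreen-type bead luminescence; percent inhibition at 1 μM versus uninhibited and kinase-free controls.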

Sequence of cytochrome P450 2C9 (P11712 whole entry): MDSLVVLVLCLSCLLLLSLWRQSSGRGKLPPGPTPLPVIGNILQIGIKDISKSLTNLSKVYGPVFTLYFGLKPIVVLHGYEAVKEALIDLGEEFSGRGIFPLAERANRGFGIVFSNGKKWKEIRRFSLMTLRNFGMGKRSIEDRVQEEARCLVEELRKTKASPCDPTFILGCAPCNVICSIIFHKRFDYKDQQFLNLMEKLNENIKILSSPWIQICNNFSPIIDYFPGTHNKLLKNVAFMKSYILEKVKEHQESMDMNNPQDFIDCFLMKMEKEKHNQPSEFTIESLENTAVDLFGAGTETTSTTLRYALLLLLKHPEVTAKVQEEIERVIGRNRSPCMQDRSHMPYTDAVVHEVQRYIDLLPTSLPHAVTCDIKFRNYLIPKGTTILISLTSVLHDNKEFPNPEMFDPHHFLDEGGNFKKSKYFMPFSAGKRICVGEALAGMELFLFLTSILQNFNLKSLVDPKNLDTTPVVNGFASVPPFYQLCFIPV

| Compound | IC50 (cytochrome P450 2C9) | solubility at 2 h [1] | inhibition at 1 µM (p38 MAP-kinase) |
| --- | --- | --- | --- |
| COc1c(NC(=O)c2cc3cccc(CN4CCCN(C(=O)[C@@H]5CCCN5C)CC4)c3n2C)cc(C(C)(C)C)cc1NS(C)(=O)=O [Example 8, 1-methyl-7-[4-((2S)-1-methyl-pyrrolidine-2-carbonyl)-[1,4]diazepan-1-ylmethyl]-1H-indole-2-carboxylic acid-(5-tert-butyl-3-methanesulphonylamino-2-methoxy-phenyl)-amide] | 1.67 µM | 280 µg/mL (≈ 429 µM) | 97.3% |
| COc1c(CN2CCN(C)CC2)cc(C(C)(C)C)cc1NC(=O)c1cc2cccc(CN3CCN(C(=O)[C@@H]4CCCN4C)CC3)c2n1C [Example 9, (S)-1-methyl-7-[4-(1-methyl-pyrrolidine-2-carbonyl)-piperazin-1-ylmethyl]-1H-indole-2-carboxylic acid-[5-tert-butyl-2-methoxy-3-(4-methyl-piperazin-1-ylmethyl)-phenyl]-amide] | 11 µM | > 1000 µg/mL | 98.8% |
| COc1c(NC(=O)c2cc3cccc(CN4CCN(C(=O)[C@@H]5CCCN5C)CC4)c3n2C)cc(C(C)(C)C)cc1C(=O)NC1CC1 [Example 10, (S)-1-methyl-7-[4-(1-methyl-pyrrolidine-2-carbonyl)-piperazin-1-ylmethyl]-1H-indole-2-carboxylic acid-(5-tert-butyl-3-cyclopropylcarbamoyl-2-methoxy-phenyl)-amide] | 1.32 µM | 420 µg/mL (≈ 668 µM) | 99.1% |
| COc1c(NC(=O)c2cc3cccc(CN4CCN(C(=O)[C@@H]5CCCN5C)CC4)c3n2C)cc(C(C)(C)C)cc1C(=O)N(C)C [Example 11, (S)-1-methyl-7-[4-(1-methyl-pyrrolidine-2-carbonyl)-piperazin-1-ylmethyl]-1H-indole-2-carboxylic acid-(5-tert-butyl-3-dimethylcarbamoyl-2-methoxy-phenyl)-amide] | 5.9 µM | 450 µg/mL (≈ 730 µM) | 92% |
| CCC(=O)Nc1cc(C(C)(C)C)cc(NC(=O)c2cc3cccc(CN4CCN(C(=O)[C@@H]5CCCN5C)CC4)c3n2C)c1OC [Example 12, (S)-1-methyl-7-[4-(1-methyl-pyrrolidine-2-carbonyl)-piperazin-1-ylmethyl]-1H-indole-2-carboxylic acid-(5-tert-butyl-2-methoxy-3-propionylamino-phenyl)-amide] | 0.5 µM | 660 µg/mL (≈ 1070 µM) | 97.9% |
| CCCS(=O)(=O)Nc1cc(C(C)(C)C)cc(NC(=O)c2cc3cccc(CN4CCN(C(=O)[C@@H]5CCCN5C)CC4)c3n2C)c1OC [Example 13, (S)-1-methyl-7-[4-(1-methyl-pyrrolidine-2-carbonyl)-piperazin-1-ylmethyl]-1H-indole-2-carboxylic acid-[5-tert-butyl-2-methoxy-3-(propane-1-sulphonylamino)-phenyl]-amide] | 0.5 µM | 17 µg/mL (≈ 25.5 µM) | 99.1% |
| COc1c(NC(=O)c2cc3cccc(CN4CCN(C(=O)[C@@H]5CCCN5C)CC4)c3n2C)cc(C(F)(F)C(F)(F)F)cc1NS(C)(=O)=O [Example 14, (S)-1-methyl-7-[4-(1-methyl-pyrrolidine-2-carbonyl)-piperazin-1-ylmethyl]-1H-indole-2-carboxylic acid-(3-methanesulphonylamino-2-methoxy-5-pentafluoroethyl-phenyl)-amide] | 1.43 µM | 27 µg/mL (≈ 38.5 µM) | 98.8% |
| COc1c(CO)cc(C(C)(C)C)cc1NC(=O)c1cc2cccc(CN3CCN(C(=O)[C@@H]4CCCN4C)CC3)c2n1C [Example 15, (S)-1-methyl-7-[4-(1-methyl-pyrrolidine-2-carbonyl)-piperazin-1-ylmethyl]-1H-indole-2-carboxylic acid-(5-tert-butyl-3-hydroxymethyl-2-methoxy-phenyl)-amide] | 2.54 µM | 230 µg/mL (≈ 399 µM) | 99.4% |
| COc1c(NC(=O)c2cc3cccc(CN4CCN(C(=O)CC5CC5)CC4)c3n2C)cc(C(C)(C)C)cc1NS(C)(=O)=O [Va, reference compound] | < 0.4 µM | < 1 µg/mL | 98.8% |
| COc1c(NC(=O)c2cc3cccc(CN4CCN(C(=O)C5(C)CC5)CC4)c3n2C)cc(C(C)(C)C)cc1NS(C)(=O)=O [Vb, reference compound] | < 0.4 µM | < 1 µg/mL | 99.1% |
| COc1c(NC(=O)c2cc3cccc(CN4CCN(C(=O)C5CC5)CC4)c3n2C)cc(C(C)(C)C)cc1NS(C)(=O)=O [Vc, reference compound] | < 0.4 µM | < 1 µg/mL | 99.1% |

Reference: patent publication US8686022B2, “7-(piperazine-1-ymethyl)-1H-indole-2-carboxylic acid (phenyl)-amide derivatives and allied compounds as p38 MAP kinase inhibitors for the treatment of respiratory diseases” (Boehringer Ingelheim International GmbH, priority 2008, dated 2014)
